# Calls of active or inactive are those of the source.
# Columns and labels:
# [1] = Trypanosoma cruzi growth suppression in host cells – NIH3T3 host cells, beta-gal luminescence, confirmation (AID 2044); format: functional, cell-based;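 further: intracellular parasites grown in NIH/3T3 mouse fibroblasts as host cells; luminescent beta-galactosidase reporter signal from transgenic T. cruzi replicating inside host cells; inhibitors lower the luminescence signal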
# [2] = NIH3T3 cell viability loss – ATP luminescence, mouse fibroblasts, counter-screen, dose response (AID 2010); format: functional, cell-based;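 further: cells exposed to compound for about 90 hours before reading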
# [3] = target: T1, Microphthalmia-associated transcription factor (Homo sapiens, UniProt O75030); experiment: reducers of TRPM1 reporter luminescence, concentration series – cell-based, SK-MEL-5, cherry-picked, set 3, MITF inhibitor project, dose response (AID 493073); format: functional;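 further: SK-MEL-5 melanoma cells with luciferase driven by the MITF target TRPM1 promoter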
# T1 sequence (O75030 whole entry): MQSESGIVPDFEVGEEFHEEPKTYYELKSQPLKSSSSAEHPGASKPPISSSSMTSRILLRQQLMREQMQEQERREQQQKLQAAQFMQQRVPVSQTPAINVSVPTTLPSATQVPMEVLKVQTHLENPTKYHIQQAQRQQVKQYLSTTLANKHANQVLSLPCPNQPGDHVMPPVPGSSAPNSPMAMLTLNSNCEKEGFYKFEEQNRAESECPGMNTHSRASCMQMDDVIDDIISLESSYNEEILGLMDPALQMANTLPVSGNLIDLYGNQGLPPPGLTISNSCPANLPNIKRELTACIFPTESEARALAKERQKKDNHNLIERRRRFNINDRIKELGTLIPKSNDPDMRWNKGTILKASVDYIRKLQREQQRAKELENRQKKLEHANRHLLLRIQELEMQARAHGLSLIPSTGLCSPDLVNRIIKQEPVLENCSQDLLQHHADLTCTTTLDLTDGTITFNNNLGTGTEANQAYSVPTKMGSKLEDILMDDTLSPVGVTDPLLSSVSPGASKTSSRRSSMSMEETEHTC
# A-375 [4] = experiment: MITF: Counter assay: A375 proliferation Measured in Cell-Based System Using Plate Reader - 2084-03_Inhibitor_Dose_DryPowder_Activity. [Related pubchem assays (depositor defined):AID488944]; format: functional; details: Homo sapiens
# [5] = reduction of Shn3 3'UTR-driven luciferase in osteoblasts – cell-based, Clone20 osteoblasts, firefly luciferase, cherry-picked, dose response (AID 624132); format: functional;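 further: firefly luciferase luminescence from reporter carrying the Shn3 3'UTR in osteoblasts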
# [6] = loss of viability in HepG2 cells – cell-based, CellTiter-Glo, cherry-picked, cytotoxicity control for Shn3 inhibitor project, dose response (AID 624134); format: functional
# CAAX prenyl protease 2 [7] = target: T2, CAAX prenyl protease 2 (Saccharomyces cerevisiae S288c, UniProt Q03530); format: biochemical
# T2 sequence (Q03530 whole entry): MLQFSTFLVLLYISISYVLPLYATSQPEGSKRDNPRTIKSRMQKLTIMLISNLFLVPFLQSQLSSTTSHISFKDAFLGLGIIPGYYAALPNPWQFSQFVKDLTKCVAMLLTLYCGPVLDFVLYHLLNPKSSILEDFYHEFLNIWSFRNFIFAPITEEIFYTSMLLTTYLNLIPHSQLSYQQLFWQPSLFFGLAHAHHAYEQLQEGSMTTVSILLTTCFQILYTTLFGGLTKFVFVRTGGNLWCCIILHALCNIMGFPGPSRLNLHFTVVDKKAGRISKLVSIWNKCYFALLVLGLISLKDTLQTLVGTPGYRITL
# CAAX prenyl protease 1 = CAAX prenyl protease 1 (Saccharomyces cerevisiae S288c, UniProt P47154); experiment: yeast CAAX protease Ste24 inhibition – biochemical, S. cerevisiae, plate reader, cherry-pick, dose response (AID 488815)
# Cytochrome P450 1A2 = target: T3, Cytochrome P450 1A2 (Homo sapiens, UniProt P05177);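 further: PubChem cytochrome P450 panel assay, CYP1A2 panel member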
# T3 sequence (P05177 whole entry): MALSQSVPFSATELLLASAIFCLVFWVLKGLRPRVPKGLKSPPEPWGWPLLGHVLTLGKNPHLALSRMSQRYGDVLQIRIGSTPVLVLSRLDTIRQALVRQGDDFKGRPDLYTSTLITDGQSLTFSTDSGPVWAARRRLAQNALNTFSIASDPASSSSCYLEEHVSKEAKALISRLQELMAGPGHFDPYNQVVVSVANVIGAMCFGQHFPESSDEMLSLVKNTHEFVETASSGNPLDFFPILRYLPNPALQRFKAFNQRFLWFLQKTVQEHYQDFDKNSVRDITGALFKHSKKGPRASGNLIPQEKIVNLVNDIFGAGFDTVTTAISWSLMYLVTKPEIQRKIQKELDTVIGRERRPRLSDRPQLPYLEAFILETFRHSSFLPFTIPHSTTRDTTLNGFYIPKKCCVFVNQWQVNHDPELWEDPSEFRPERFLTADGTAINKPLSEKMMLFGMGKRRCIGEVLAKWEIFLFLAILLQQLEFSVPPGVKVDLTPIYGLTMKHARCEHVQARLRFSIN
# Cytochrome P450 2C9 = Cytochrome P450 2C9 (Homo sapiens, UniProt P11712)
# Beta-galactosidase = Beta-galactosidase (Escherichia coli, UniProt Q8VNN2); experiment: PubChem AID 485352; format: functional
# [8] = target: Type-1 angiotensin II receptor (Homo sapiens, UniProt P30556); experiment: antagonism of angiotensin II type 1 receptor – cell-based, uHTS hits, selectivity assay for APJ receptor antagonist project, dose response (AID 463214); format: functional;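 further: antagonist potency against angiotensin II stimulated AT1 response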
# CAAX prenyl protease 2 [9] = target: CAAX prenyl protease 2 (Homo sapiens, UniProt Q9Y256); experiment: inhibition of Ras-converting CAAX protease Rce1 – biochemical, yeast membranes, quenched-peptide fluorescence, cherry-pick, dose response (AID 588849)
# Vero [10] = experiment: cells; format: functional, cell-based; details: Chlorocebus sabaeus
# [11] = target: Delta-type opioid receptor (Homo sapiens, UniProt P41143); experiment: Counterscreen for agonists of heterodimerization of the mu 1 (OPRM1) and delta 1 (OPRD1) opioid receptors: Luminescence-based cell-based high throughput dose response assay to identify agonists of OPRD1 homodimerization. [Related pubchem assays (depositor defined):AID504326, AID504355, AID504692, AID504904, AID504905]; format: functional
# Mu-type opioid receptor = Mu-type opioid receptor (Homo sapiens, UniProt P35372); experiment: Counterscreen for agonists of heterodimerization of the mu 1 (OPRM1) and delta 1 (OPRD1) opioid receptors: Luminescence-based cell-based high throughput dose response assay to identify agonists of OPRM1 homodimerization.; format: functional;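 further: U2OS cells expressing OPRM1 and beta-arrestin as split beta-galactosidase partners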
# [12] = target: 5-hydroxytryptamine receptor 5A (Homo sapiens, UniProt P47898); experiment: Counterscreen for agonists of OPRM1-OPRD1 heterodimerization: luminescence-based cell-based high throughput dose response assay to identify agonists of 5-hydroxytryptamine (serotonin) 5A receptor (HTR5A). [Related pubchem assays (depositor defined):AID504326, AID504355, AID504692, AID504904, AID504905]; format: functional
# Vero [13] = experiment: cells; format: functional; details: Chlorocebus sabaeus
# [14] = viability loss in HepG2 hepatoma cells – cell-based, ATP luminescence, cherry-pick, activator set 2, cytotoxicity control, dose response (AID 1053143); format: functional
# [15] = target: T4, RNA-binding protein pos-1 (Caenorhabditis elegans, UniProt G5EF15); experiment: disruptors of C. elegans POS-1 RNA interaction – biochemical, fluorescence polarization, dose response (AID 1964);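 further: purified POS-1 fused to maltose binding protein made in E. coli; potency of compounds blocking POS-1 binding to fluorescent RNA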
# T4 sequence (G5EF15 whole entry): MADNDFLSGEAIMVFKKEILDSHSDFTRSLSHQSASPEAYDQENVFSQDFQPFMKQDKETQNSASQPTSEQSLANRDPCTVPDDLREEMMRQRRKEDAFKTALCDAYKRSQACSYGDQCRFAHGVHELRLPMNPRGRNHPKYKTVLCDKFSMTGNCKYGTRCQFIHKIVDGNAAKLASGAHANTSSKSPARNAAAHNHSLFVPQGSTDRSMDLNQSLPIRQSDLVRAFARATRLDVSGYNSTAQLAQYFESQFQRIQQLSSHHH
# [16] = target: T5, Zinc finger protein mex-5 (Caenorhabditis elegans, UniProt Q9XUB2); experiment: potency of MEX-5 RNA-binding blockers – biochemical, C. elegans, fluorescence polarization, dose response (AID 1960)
# T5 sequence (Q9XUB2 whole entry): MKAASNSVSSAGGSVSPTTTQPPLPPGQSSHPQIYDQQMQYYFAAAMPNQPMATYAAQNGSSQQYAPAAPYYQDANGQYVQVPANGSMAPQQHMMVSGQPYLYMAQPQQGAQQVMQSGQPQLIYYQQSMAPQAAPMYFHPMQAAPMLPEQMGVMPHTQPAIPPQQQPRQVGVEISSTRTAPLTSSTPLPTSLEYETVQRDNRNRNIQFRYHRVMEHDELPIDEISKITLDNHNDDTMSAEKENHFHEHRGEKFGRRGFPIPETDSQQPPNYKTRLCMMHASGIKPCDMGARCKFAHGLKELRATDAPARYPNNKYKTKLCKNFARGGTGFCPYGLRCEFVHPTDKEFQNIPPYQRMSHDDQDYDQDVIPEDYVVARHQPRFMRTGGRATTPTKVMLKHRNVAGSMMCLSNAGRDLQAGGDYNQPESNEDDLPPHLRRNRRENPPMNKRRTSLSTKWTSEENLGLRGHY
# [17] = target: Bifunctional protein GlmU (Mycobacterium tuberculosis, UniProt P9WMN3); experiment: Inhibitors of Mycobacterial Glucosamine-1-phosphate acetyl transferase (GlmU). Secondary screen.; parameters: species or system Mycobacterium tuberculosis H37Rv
# [18] = target: Induced myeloid leukemia cell differentiation protein Mcl-1 (Homo sapiens, UniProt Q07820); format: functional
# [19] = target: Intestinal-type alkaline phosphatase (Mus musculus, UniProt P24822); experiment: PubChem AID 488785; format: functional
# [20] = target: T6, Alkaline phosphatase, tissue-nonspecific isozyme (Homo sapiens, UniProt P05186); experiment: TNAP enzyme inhibition by screening hits, dose response, selectivity assay for mouse IAP inhibitor project, biochemical, human TNAP, uHTS hits (AID 488906); format: functional
# T6 sequence (P05186 whole entry): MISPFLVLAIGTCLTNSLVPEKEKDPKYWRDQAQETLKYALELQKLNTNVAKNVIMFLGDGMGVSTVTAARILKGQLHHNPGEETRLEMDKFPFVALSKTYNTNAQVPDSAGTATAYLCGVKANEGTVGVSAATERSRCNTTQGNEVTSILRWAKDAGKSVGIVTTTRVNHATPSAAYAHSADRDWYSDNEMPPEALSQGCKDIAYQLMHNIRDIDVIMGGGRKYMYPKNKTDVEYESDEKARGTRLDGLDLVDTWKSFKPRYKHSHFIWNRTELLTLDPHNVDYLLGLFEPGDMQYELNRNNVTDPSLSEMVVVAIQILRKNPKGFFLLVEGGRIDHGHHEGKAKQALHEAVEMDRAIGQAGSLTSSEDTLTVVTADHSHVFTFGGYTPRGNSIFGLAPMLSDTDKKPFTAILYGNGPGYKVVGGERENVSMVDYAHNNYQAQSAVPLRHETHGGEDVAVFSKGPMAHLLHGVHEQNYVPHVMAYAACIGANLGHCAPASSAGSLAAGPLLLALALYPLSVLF
# [21] = target: Intestinal-type alkaline phosphatase (Homo sapiens, UniProt P09923); experiment: inhibition of human intestinal alkaline phosphatase – biochemical, dose response (AID 488876); format: functional
# A-375 [22] = experiment: proliferation inhibition in MITF-low A375 cells – cell-based, cherry-pick samples, set 2, counter-screen for MITF modulator project, dose response (AID 540335); format: functional; details: Homo sapiens
# [23] = viability of PTEN-deleted HCT116 cells – cell-based, HCT116 PTEN knockout, dose response (AID 1047); format: functional;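 further: HCT116 colon tumor cells with PTEN knocked out; cells exposed to compound for 60 hours before readout; potency for loss of cell viability measured by luminescence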
# [24] = viability of HCT116 lacking mutant beta-catenin – cell-based, human colon tumor, dose response (AID 1045); format: functional;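 further: HCT116 colon tumor cells with beta catenin knocked out; cells exposed to compound for 60 hours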
# [25] = target: Heat shock protein HSP 90-alpha (Homo sapiens, UniProt P07900); format: functional, organism-based
# Genome polyprotein = Genome polyprotein (dengue virus type 2, UniProt P29990); experiment: flavivirus cap methylation enzyme inhibition – biochemical, confirmation dose response, primary screen (AID 588689); format: functional
# [26] = target: DNA (cytosine-5)-methyltransferase 1 (Homo sapiens, UniProt P26358); experiment: inhibition of DNA methylation by DNMT1 – biochemical, fluorescent molecular beacon, confirmation (AID 602386); format: functional
# DNA (cytosine-5)-methyltransferase 1, sequence (P26358 whole entry): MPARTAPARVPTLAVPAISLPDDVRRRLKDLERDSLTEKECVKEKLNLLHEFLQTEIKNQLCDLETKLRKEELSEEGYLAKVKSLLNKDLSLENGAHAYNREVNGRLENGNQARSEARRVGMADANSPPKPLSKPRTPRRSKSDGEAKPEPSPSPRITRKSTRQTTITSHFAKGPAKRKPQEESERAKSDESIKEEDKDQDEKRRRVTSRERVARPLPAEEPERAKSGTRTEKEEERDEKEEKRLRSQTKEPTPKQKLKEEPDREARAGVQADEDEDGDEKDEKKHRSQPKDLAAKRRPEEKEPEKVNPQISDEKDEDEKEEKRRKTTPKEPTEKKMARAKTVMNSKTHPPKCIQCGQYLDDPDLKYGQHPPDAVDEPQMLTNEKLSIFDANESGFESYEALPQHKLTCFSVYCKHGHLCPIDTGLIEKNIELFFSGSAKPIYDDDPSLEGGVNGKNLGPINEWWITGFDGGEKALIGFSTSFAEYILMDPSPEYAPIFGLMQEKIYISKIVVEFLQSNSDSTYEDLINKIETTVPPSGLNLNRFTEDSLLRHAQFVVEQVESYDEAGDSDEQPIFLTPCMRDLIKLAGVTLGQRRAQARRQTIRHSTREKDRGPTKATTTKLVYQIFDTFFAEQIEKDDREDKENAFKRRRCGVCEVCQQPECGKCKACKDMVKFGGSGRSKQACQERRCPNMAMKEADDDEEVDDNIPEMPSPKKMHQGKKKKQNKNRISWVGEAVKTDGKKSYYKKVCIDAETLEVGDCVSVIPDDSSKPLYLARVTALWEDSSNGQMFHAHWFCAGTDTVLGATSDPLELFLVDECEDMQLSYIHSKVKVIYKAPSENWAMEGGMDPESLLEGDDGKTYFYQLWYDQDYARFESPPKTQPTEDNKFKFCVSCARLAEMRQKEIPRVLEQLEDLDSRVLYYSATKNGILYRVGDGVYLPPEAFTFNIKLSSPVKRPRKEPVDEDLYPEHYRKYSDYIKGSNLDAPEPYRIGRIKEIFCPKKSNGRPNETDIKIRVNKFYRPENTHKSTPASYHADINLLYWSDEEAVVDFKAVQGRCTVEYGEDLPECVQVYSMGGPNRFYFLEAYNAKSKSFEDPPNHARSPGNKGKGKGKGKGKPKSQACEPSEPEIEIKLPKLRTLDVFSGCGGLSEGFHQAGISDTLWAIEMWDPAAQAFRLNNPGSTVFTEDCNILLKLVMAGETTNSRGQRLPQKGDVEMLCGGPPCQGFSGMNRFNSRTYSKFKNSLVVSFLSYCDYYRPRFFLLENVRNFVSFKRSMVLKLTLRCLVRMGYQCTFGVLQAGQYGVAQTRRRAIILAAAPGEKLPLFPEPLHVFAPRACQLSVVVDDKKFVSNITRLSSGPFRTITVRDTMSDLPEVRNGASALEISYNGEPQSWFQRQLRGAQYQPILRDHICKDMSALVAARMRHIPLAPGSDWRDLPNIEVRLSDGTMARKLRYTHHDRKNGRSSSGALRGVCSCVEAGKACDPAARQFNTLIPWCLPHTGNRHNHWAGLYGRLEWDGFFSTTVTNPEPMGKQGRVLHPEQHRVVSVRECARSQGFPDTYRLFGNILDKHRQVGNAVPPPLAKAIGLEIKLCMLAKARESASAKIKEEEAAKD
# Intestinal-type alkaline phosphatase (Homo sapiens, UniProt P09923), sequence (P09923 whole entry): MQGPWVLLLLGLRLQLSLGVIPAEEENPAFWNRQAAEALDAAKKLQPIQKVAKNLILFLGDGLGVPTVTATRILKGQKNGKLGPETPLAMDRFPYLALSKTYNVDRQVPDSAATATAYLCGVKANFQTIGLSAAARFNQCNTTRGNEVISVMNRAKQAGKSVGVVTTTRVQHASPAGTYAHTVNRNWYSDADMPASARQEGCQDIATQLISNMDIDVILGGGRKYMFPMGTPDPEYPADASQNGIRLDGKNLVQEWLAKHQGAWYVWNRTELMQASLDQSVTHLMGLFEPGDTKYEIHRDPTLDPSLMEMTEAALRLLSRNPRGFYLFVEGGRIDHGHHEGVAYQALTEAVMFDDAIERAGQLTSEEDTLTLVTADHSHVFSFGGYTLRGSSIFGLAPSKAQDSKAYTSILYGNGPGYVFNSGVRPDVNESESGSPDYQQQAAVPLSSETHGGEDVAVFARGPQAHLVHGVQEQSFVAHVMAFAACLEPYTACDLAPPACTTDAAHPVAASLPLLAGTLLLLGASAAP
# Intestinal-type alkaline phosphatase (Mus musculus, UniProt P24822), sequence (P24822 whole entry): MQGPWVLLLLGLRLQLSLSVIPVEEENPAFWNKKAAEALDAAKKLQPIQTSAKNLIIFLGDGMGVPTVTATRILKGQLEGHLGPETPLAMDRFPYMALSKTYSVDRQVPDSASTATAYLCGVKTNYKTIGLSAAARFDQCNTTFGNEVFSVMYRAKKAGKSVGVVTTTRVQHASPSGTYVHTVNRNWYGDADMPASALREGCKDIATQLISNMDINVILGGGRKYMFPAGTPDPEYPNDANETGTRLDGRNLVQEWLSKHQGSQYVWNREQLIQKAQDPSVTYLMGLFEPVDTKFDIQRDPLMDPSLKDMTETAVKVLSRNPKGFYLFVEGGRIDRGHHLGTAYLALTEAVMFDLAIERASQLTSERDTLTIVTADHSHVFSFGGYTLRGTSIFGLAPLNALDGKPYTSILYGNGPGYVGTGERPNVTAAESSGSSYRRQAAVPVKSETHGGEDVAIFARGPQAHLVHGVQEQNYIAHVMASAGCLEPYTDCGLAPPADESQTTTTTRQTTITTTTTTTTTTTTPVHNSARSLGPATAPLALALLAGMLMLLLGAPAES
# CAAX prenyl protease 1, sequence (P47154 whole entry): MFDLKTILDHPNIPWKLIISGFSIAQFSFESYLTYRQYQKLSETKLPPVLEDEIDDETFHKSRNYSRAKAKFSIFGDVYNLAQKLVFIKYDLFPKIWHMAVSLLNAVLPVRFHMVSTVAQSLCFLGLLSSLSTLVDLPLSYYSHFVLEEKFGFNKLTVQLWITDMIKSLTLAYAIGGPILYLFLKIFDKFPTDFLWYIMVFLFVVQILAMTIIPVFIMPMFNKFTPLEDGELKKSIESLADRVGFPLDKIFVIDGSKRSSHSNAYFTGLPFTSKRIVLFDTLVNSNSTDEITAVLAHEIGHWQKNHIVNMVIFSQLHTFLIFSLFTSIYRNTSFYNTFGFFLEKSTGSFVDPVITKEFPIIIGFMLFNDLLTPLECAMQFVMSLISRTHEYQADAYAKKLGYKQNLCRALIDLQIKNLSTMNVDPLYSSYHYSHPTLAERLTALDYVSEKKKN
# CAAX prenyl protease 2 (Homo sapiens, UniProt Q9Y256), sequence (Q9Y256 whole entry): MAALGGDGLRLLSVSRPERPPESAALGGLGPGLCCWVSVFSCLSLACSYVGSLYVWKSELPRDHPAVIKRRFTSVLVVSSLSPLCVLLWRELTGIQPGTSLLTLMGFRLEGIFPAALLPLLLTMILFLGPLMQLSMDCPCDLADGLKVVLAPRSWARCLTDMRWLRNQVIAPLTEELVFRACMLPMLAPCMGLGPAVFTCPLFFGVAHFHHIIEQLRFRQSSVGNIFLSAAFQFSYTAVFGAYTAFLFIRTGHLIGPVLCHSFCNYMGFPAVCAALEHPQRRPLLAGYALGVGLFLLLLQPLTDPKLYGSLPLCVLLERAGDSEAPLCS
# Bifunctional protein GlmU, sequence (P9WMN3 whole entry): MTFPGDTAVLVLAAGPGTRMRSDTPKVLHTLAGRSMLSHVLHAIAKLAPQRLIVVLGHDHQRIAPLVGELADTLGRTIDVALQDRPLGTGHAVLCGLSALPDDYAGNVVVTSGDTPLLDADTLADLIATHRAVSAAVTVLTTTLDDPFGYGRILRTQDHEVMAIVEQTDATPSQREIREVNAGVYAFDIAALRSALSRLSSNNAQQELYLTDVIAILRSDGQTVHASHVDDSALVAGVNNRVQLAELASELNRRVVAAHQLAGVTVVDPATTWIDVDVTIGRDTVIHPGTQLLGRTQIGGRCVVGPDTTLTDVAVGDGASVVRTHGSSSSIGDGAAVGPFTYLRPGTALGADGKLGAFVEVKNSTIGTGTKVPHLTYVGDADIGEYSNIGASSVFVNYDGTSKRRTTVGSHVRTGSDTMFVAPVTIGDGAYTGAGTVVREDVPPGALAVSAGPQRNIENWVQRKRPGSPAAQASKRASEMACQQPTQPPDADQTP
# Type-1 angiotensin II receptor, sequence (P30556 whole entry): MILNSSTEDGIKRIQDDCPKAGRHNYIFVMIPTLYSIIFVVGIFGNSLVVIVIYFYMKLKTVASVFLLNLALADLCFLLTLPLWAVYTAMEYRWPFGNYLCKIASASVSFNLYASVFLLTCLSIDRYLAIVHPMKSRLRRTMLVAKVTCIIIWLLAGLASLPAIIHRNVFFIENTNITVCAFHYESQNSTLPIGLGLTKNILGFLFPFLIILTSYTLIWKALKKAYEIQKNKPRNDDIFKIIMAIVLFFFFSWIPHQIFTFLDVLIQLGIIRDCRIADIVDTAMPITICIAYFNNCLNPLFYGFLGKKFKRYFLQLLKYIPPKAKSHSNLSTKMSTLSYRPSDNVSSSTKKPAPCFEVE
# Mu-type opioid receptor, sequence (P35372 whole entry): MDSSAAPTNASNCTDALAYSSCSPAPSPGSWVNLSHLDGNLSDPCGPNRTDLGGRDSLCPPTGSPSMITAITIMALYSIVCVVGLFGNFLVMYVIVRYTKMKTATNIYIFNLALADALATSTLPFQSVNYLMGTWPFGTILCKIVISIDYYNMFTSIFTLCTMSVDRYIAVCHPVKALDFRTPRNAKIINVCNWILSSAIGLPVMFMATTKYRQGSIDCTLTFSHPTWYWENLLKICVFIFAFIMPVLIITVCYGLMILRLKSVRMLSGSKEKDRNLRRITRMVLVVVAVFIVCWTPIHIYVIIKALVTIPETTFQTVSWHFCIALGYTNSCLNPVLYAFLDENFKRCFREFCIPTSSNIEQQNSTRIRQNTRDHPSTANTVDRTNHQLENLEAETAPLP
structure (smiles),measurement,setting,value
Cc1ccc(-n2cc(CNCCCn3ccnc3C)c(-c3ccc(F)cc3)n2)cc1,EC50,[1],1.77 µM (active)
same,EC50,[2],14.4 µM (active)
same,AC50,[3],7.58 µM (active)
same,AC50,A-375 [4],21.2 µM (active)
same,AC50,[5],20.6 µM (active)
same,AC50,[6],16.7 µM (active)
COc1cc2c(cc1OC)C(C)=NC1(CCCCC1)C2,AC50,CAAX prenyl protease 2 [7],6.87 µM (active)
same,AC50,CAAX prenyl protease 1,8.72 µM (active)
CS(=O)(=O)N1CCC2(CCN(c3ccccc3)CC2)CC1,AC50,Cytochrome P450 1A2,inconclusive
same,AC50,Cytochrome P450 2C9,inconclusive
CCOC(=O)C1=C(C)N=C2CC(c3cccs3)CC(O)=C2C1c1cccs1 (configuration not stated),EC50,Beta-galactosidase,39.3 µM (active)
same,IC50,[8],36 µM (not active)
COc1ccc(-c2c(C)oc3c(CN4CCN(C)CC4)c(O)ccc3c2=O)cc1,AC50,CAAX prenyl protease 2 [7],28.6 µM (active)
same,AC50,CAAX prenyl protease 2 [9],3.72 µM (active)
CN1CCN(c2ccc(NC(=O)c3ccc(-c4ccccc4F)o3)cc2)CC1,IC50,Vero [10],24.8 µM (active)
same,EC50,[11],32.6 µM (inactive)
same,EC50,Mu-type opioid receptor,26.3 µM (inactive)
same,EC50,[12],> 92.5 µM (inactive)
same,CC50,Vero [13],> 25 µM (active)
same,AC50,[14],26 µM (active)
O=C1CSC(=S)N1/N=C/c1ccc(O)c(O)c1O,EC50,[15],5.17 µM (inconclusive)
same,EC50,[16],0.668 µM (inconclusive)
same,IC50,[17],7.79 µM (active)
same,IC50,[18],1.17 µM (active)
same,IC50,[19],4.15 µM (active)
same,IC50,[20],58.5 µM (active)
same,IC50,[21],> 100 µM (inactive)
CC(C)Oc1ccc(C(CCNCc2ccc(O)cc2)c2ccccc2)cc1 (configuration not stated),AC50,[3],12.8 µM (active)
same,AC50,A-375 [22],18.8 µM (active)
O=C(/C=C/c1cccc([N+](=O)[O-])c1)c1cccs1,EC50,[23],14.3 µM (active)
same,EC50,[24],10.9 µM (active)
same,AC50,[3],15.3 µM (active)
same,AC50,[25],4.16 µM (active)
same,AC50,A-375 [4],> 35 µM (active)
same,AC50,A-375 [22],> 35 µM (active)
CN1C(=O)NC(=O)/C(=C\c2ccc([N+](=O)[O-])o2)C1=O,EC50,[15],33.3 µM (active)
same,EC50,[16],20.6 µM (active)
same,IC50,[19],> 100 µM (inactive)
same,IC50,[20],> 100 µM (inactive)
same,IC50,[21],> 100 µM (inactive)
same,IC50,Genome polyprotein,42.6 µM (active)
same,IC50,[26],2.08 µM (active)
